Test results taken from patent US20210401809A1, “PHARMACEUTICAL COMPOUNDS” (Sareum Limited, priority 2016, published 2021).

Tests used:
[1] = tested on: TYK2 dependent cell lines (T-ALL cells); conditions: Sanda et al.; cited from earlier work
[2] = tested on: CCRF-HSB-2 cells (TYK2-dependent T-ALL); test: Cell proliferation assay (ATPlite, 7 days); assay type: cell-based; conditions: Homo sapiens, CCRF-HSB-2, 168 h
Experimental: (§1) Jurkat, MOLT-4, CCRF-CEM and CCRF-HSB-2 cells are all TYK2-dependent T-ALL cells. Loucy cells are TYK2-independent T-ALL cell lines. Dexamethasone, Etoposide and Paclitaxel were used as positive controls. Compound effects were studied 7 days after compound addition […] Luminescent product was detected using a BMG FLUOstar plate reader. • The data were analysed using a 4-parameter logistic equation in GraphPad Prism.

[3] = tested on: MOLT-4 cells (TYK2-dependent T-ALL); test: Cell proliferation assay (ATPlite, 7 days); assay type: cell-based; conditions: Homo sapiens, MOLT-4, 168 h
Experimental: as §1

[4] = tested on: CCRF-CEM cells (TYK2-dependent T-ALL); test: Cell proliferation assay (ATPlite, 7 days); assay type: cell-based; conditions: Homo sapiens, 168 h
Experimental: as §1

[5] = tested on: Loucy cells (TYK2-independent T-ALL); test: Cell proliferation assay (ATPlite, 7 days); assay type: cell-based; conditions: 168 h
Experimental: as §1

[6] = tested on: Jurkat cells (TYK2-dependent T-ALL); test: Cell proliferation assay (ATPlite, 7 days); assay type: cell-based; conditions: Homo sapiens, 168 h
Experimental: as §1

JAK2 = biological target: T1, JAK2 (Homo sapiens, UniProt O60674); test: In vitro enzyme inhibition, 33P-ATP filter kinase assay (Reaction Biology); assay type: biochemical
T1 construct: 809-1132; GST (N); '+g'; purchased Reaction Biology Corp. (contract assay); host or cells: Baculovirus in Sf21 insect cells
Experimental: (§2) Compounds of the invention were assayed for their ability to inhibit TYK2 kinase and other JAK kinases.
(§3) Substrates and kinases used in the assays are identified in Table 2 below.

TYK2 kinase = biological target: T2, TYK2 kinase (Homo sapiens, UniProt P29597); test: as above; assay type: biochemical
T2 construct: 833-1187; GST (N); purchased Reaction Biology Corp. (contract assay); host or cells: Baculovirus in Sf21 insect cells
Experimental: as §2, §3
(§4) JAK3tide=[Ac-[…]-NH2]

JAK3 = biological target: T3, JAK3 (Homo sapiens, UniProt P52333); test: as above; assay type: biochemical
T3 construct: 781-1124; GST (N); purchased Reaction Biology Corp. (contract assay); host or cells: Baculovirus in Sf21 insect cells
Experimental: as §2, §3, §4

JAK1 = biological target: T4, JAK1 (Homo sapiens, UniProt P23458); test: as above; assay type: biochemical
T4 construct: 866-1154; GST (N); purchased Reaction Biology Corp. (contract assay); host or cells: Baculovirus in Sf21 insect cells
Experimental: as §2, §3, §4

T4 sequence (P23458 866-1154): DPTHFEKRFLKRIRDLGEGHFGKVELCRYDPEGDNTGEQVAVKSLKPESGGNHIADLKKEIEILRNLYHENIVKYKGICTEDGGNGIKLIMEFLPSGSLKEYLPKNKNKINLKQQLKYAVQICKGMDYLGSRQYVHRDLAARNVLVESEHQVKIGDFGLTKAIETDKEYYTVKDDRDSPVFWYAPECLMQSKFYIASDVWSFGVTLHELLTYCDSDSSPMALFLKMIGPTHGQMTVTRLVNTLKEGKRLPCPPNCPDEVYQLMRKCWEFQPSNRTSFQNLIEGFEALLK
T2 sequence (P29597 833-1187): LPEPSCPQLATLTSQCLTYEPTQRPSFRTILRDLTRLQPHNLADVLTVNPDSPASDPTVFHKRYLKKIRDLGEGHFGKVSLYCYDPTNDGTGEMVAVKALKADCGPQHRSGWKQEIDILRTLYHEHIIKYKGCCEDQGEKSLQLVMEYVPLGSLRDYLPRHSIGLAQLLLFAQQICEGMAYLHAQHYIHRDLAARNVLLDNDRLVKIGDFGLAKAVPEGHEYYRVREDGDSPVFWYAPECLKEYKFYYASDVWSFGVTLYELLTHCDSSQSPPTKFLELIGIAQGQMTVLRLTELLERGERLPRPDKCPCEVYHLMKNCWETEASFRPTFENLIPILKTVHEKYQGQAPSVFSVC
T3 sequence (P52333 781-1124): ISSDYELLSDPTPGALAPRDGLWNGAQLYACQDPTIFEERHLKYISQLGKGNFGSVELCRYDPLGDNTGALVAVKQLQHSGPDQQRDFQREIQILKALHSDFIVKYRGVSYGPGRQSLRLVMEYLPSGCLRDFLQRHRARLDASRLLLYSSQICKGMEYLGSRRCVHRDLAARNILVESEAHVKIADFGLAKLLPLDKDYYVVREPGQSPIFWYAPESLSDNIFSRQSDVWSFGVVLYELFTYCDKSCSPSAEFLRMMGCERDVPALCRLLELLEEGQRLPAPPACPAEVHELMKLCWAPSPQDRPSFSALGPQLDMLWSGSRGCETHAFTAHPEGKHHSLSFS
T1 sequence (O60674 809-1132): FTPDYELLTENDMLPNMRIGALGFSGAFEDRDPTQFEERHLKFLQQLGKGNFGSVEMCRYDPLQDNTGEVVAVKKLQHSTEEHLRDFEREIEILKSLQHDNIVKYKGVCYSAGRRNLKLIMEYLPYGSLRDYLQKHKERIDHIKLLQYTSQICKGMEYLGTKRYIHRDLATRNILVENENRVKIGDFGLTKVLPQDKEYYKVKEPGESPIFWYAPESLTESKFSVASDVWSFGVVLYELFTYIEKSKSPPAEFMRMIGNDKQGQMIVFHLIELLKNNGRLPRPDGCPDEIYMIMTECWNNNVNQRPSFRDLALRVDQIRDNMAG

| Compound | IC50 [2] [µM] | IC50 (JAK2) [nM] | IC50 (TYK2 kinase) [nM] | IC50 (JAK3) [nM] | IC50 (JAK1) [nM] | also measured |
| --- | --- | --- | --- | --- | --- | --- |
| C[C@@H]1CCN(C(=O)CC#N)C[C@@H]1N(C)c1ncnc2[nH]ccc12 [CP-690550] | – | – | – | – | – | effect against the T-ALL cells [1]: ineffective |
| CS(=O)(=O)c1ccc(Nc2oc(-c3c(Cl)cccc3Cl)nc2C(N)=O)cc1 [Compound 19, 2-(2,6-dichloro-phenyl)-5-(4-methanesulfonyl-phenylamino)-oxazole-4-carboxylic acid amide] | 17 | – | – | – | – | IC50 [3]: 12 µM; inhibition at 30 µM ([4]; 30 μM, read-out: Cell proliferation inh. @ 30 μM, CCRF-CEM): 34%; IC50 [5]: 20 µM; inhibition at 30 µM ([6]; 30 μM, read-out: Cell proliferation inh. @ 30 μM, Jurkat): 8% |
| CS(=O)(=O)c1ccc(Nc2oc(-c3c(F)cccc3Cl)nc2C(N)=O)cc1 [Compound 20, 2-(2-chloro-6-fluoro-phenyl)-5-(4-methanesulfonyl-phenylamino)-oxazole-4-carboxylic acid amide] | 2.8 | – | – | – | – | IC50 [3]: 3.1 µM; IC50 [4]: 8.9 µM; IC50 [5]: 3.9 µM; IC50 [6]: 2.1 µM |
| NC(=O)c1nc(-c2c(F)cccc2Cl)oc1Nc1ccc(C(=O)N[C@H]2CCCNC2)cc1 [Compound 23, (S) 2-(2-chloro-6-fluoro-phenyl)-5-[4-(piperidin-3-ylcarbamoyl)-phenylamino]-oxazole-4-carboxylic acid amide] | – | 61.9 | 1.89 | 240 | 63.3 | – |
| NC(=O)c1nc(-c2c(F)cccc2Cl)oc1Nc1ccc(C(=O)N[C@@H]2CCCNC2)cc1 [Compound 24, (R) 2-(2-chloro-6-fluoro-phenyl)-5-[4-(piperidin-3-ylcarbamoyl)-phenylamino]-oxazole-4-carboxylic acid amide] | – | 125 | 5.11 | 167 | 157 | – |
| CN1CCC(NC(=O)c2ccc(Nc3oc(-c4c(F)cccc4Cl)nc3C(N)=O)cc2)CC1 [Compound 26, 2-(2-chloro-6-fluoro-phenyl)-5-[4-(1-methyl-piperidin-4-ylcarbamoyl)-phenylamino]-oxazole-4-carboxylic acid amide] | – | 87.8 | 2.98 | 132 | 100 | – |
| NC(=O)c1nc(-c2c(Cl)cccc2Cl)oc1Nc1ccc(C(=O)N[C@H]2CCCNC2)cc1 [Compound 27, (S) 2-(2,6-dichloro-phenyl)-5-[4-(piperidin-3-ylcarbamoyl)-phenylamino]-oxazole-4-carboxylic acid amide] | – | 93.3 | 1.21 | 233 | 72.2 | – |

Now from value to compound, other results behind:

| IC50 [2] [µM] | IC50 (JAK2) [nM] | IC50 (TYK2 kinase) [nM] | IC50 (JAK3) [nM] | IC50 (JAK1) [nM] | Compound | also measured |
| --- | --- | --- | --- | --- | --- | --- |
| – | 122 | 1.77 | 194 | 108 | NC(=O)c1nc(-c2c(Cl)cccc2Cl)oc1Nc1ccc(C(=O)N[C@@H]2CCCNC2)cc1 [Compound 28, (R) 2-(2,6-dichloro-phenyl)-5-[4-(piperidin-3-ylcarbamoyl)-phenylamino]-oxazole-4-carboxylic acid amide] | – |
| – | 106 | 1.52 | 164 | 83.4 | CN1CCC(NC(=O)c2ccc(Nc3oc(-c4c(Cl)cccc4Cl)nc3C(N)=O)cc2)CC1 [Compound 30, 2-(2,6-dichloro-phenyl)-5-[4-(1-methyl-piperidin-4-ylcarbamoyl)-phenylamino]-oxazole-4-carboxylic acid amide] | – |
| – | 213 | 4.41 | 390 | 222 | CCS(=O)(=O)c1ccc(Nc2oc(-c3c(F)cccc3F)nc2C(N)=O)cc1 [Compound 31, 2-(2,6-difluoro-phenyl)-5-(4-ethanesulfonyl-phenylamino)-oxazole-4-carboxylic acid amide] | – |
| – | 153 | 5.47 | 516 | 135 | CC(C)S(=O)(=O)c1ccc(Nc2oc(-c3c(F)cccc3F)nc2C(N)=O)cc1 [Compound 33] | – |
| 49 | – | – | – | – | C[C@@H]1C[C@H]2[C@@H]3CCC4=CC(=O)C=C[C@]4(C)[C@@]3(F)[C@@H](O)C[C@]2(C)[C@@]1(O)C(=O)CO [Dexamethasone, reference compound] | inhibition at 10 µM ([3]; 10 μM, read-out: Cell proliferation inh. @ 10 μM, MOLT-4): 21%; IC50 [4]: 59 µM; inhibition at 10 µM ([5]; 10 μM, read-out: Cell proliferation inh. @ 10 μM, Loucy): 25%; inhibition at 10 µM ([6]; 10 μM, read-out: Cell proliferation inh. @ 10 μM, Jurkat): 5% |
| 4.7 | – | – | – | – | COc1cc([C@@H]2c3cc4c(cc3[C@@H](O[C@@H]3O[C@@H]5CO[C@@H](C)O[C@H]5[C@H](O)[C@H]3O)[C@H]3COC(=O)[C@H]23)OCO4)cc(OC)c1O [Etoposide, reference compound] | IC50 [3]: 7.7 µM; IC50 [4]: 17 µM; IC50 [5]: 33 µM; IC50 [6]: 94 µM |
| 1.3 | – | – | – | – | CC(=O)O[C@H]1C(=O)[C@@]2(C)[C@H]([C@H](OC(=O)c3ccccc3)[C@]3(O)C[C@H](OC(=O)[C@H](O)[C@@H](NC(=O)c4ccccc4)c4ccccc4)C(C)=C1C3(C)C)[C@]1(OC(C)=O)CO[C@@H]1C[C@@H]2O [Paclitaxel, reference compound] | IC50 [3]: 0.66 µM; IC50 [4]: 4.4 µM; IC50 [5]: 2.2 µM; IC50 [6]: 1.8 µM |
